Results published in publication PMC9320886, “Daily Intraperitoneal Administration of Rosiglitazone Does Not Improve Lung Function or Alveolarization in Preterm Rabbits Exposed to Hyperoxia” (Pharmaceutics, 2022).

Assays:
[1] = lung tissue binding by equilibrium dialysis; assay type: in vitro ADME; details: preterm rabbit lung homogenate, 4 h, 37 °C
Description: In vitro lung tissue binding was also determined by equilibrium dialysis as described above. Preterm rabbit lungs (New Zealand White, BIOIVT) were homogenized using a Precellys tissue homogenizer (Bertin instruments, Montigny-le-Bretonneux, France). Precellys lysing vials (CK28-R, Bertin instruments) were filled with lung and buffer according to the following proportion: 1 g of tissue and 5 mL of ice-cold PBS (dilution 1:6). At the end of the homogenization process, a pool of lung homogenate was prepared mixing equal amount of homogenate from three different donors. Test compounds and the positive control were diluted in the pooled lung homogenate to a final concentration of […] and then dispensed into the red chamber of the RED device inserts. PBS was dispensed into the other side. Upon completion of 4 h of incubation (37 °C under shaking), equal aliquots were removed from each chamber and matrix matched with even volumes of lung homogenate or buffer for LC-MS/MS analyses.
Free and Bound percentages of the compounds were calculated as follows:(3) %Free=Area buffer sample/Area lung homogenate sample×100 (4) % Bound=100−%Free

[2] = pharmacokinetic profiling in preterm rabbits; assay type: in vivo; details: rabbit
Description: A total of 30 preterm rabbits with a GA of 28 days were featured in the pharmacokinetic study. […] Surviving pups were randomized to either receive an intratracheal (IT, local delivery, n = 15) or intraperitoneal (IP, systemic delivery, n = 15) dose of 1 mg/kg of RGZ. For IP injections, RGZ (10 mg/mL in DMSO) was dissolved in H2O + 10% Tween-80 at 0.4 mg/mL and then injected in the right flank based on the pups’ body weight. For IT injections, RGZ (50 mg/mL in DMSO; Merck KGaA) was dissolved in 80 mg/mL of Poractant alfa (Curosurf, Chiesi Farmaceutici, Parma, Italy) at 0.4 mg/mL; the injection volume was based on the pups’ body weight (2.5 mL/kg), as previously described.
Before sample collection, all pups were euthanized with a pentothal sodium overdose. All samples were stored at −20 °C until analysis.
Bioanalysis and quantification were performed using a fit-for-purpose LC/MS/MS method developed internally (LC and MS conditions already described in Section 2.2). Plasma and lung homogenate samples (lungs were homogenized with a water/acetonitrile 50/50 mixture) were extracted by means of protein precipitation with 3 volumes of acetonitrile (Sigma-Aldrich Co, St. Louise, MO, USA), and the supernatant was directly injected into the LC/MS/MS system.
The plasma and lung concentrations of RGZ were determined using a calibration curve prepared in the corresponding blank rabbit matrix (range of calibration: 2–500 ng/mL for plasma; 12–6000 ng/g for lungs) and the accuracy of the quantitation was verified using quality controls prepared in the same matrix and back-calculated on the curve.
Pharmacokinetic parameters were calculated by non-compartmental analysis using Phoenix WinNonlin (Certara L.P., Princeton, NJ, USA). The following PK parameters were calculated: Tmax, time of the maximum concentration; Cmax, maximum concentration; t1/2, half-life (calculable only in case of well-defined elimination phase); AUClast, area under the curve up to the last time point.

[3] = system: preterm rabbits exposed to hyperoxia; assay: pulmonary efficacy, daily intraperitoneal 1 mg/kg, preterm rabbits exposed to hyperoxia; assay type: in vivo, rabbit; details: daily i.p. 1 mg/kg
Description: A total of 31 preterm rabbits with a GA of 28 days delivered from 4 does were included in the efficacy study. After delivery, newborn pups were put in hyperoxia (95% oxygen) for 1 h. Surviving pups were exposed to hyperoxia (95% O2) for 7 days and randomized to receiving daily (from postnatal day (PND) 0 to PND 6) intraperitoneal injections of RGZ at 1 mg/kg (n = 15) or the vehicle (n = 16).
Pups were placed on a sterilized soft bedding and remained in the incubator except for the feeding and treatments. Pups were fed 4 h after delivery on PND 0 with a milk replacer (Day One®, Protein 30%, Fat 50%; FoxValley, Aurora, IL, USA). Probiotics, electrolytes, and vitamins are added during the first 7 days (Bio-Lapis®; Probiotics International Ltd., Somerser, UK) and immunoglobulins during the first 2 days (Col-o-Cat®, SanoBest, Hertogenbosch, Netherlands). The standard feeding protocol consisted of incrementally increasing the amounts of milk replacer (PND 0: 40 mg/kg, PND 1: 50 mg/kg/day, PND 2: 75 mg/kg, PND 3–6: 100 mg/kg/day). On Day 2, vitamin K1 was administered intramuscularly (0.002 mg/kg BW, Konakion pediatrique®; Roche, Basel, Switzerland).
At Day 7, invasive lung function testing was performed using the forced oscillation technique with the flexiVent^TM apparatus (SCIREQ, Montréal, Canada). […]
The following parameters were measured: total inspiratory capacity, resistance of the respiratory system (Rrs), lung tissue damping (G), lung tissue elastance (H), and static compliance (Cst). […] The average of three measurements was calculated and used in the analysis. […]
The left lung and the right lungs were embedded in paraffin, cut, and stained with hematoxylin and eosin (H&E) following standard histology protocols. The radial alveolar count (RAC) was performed by an expert pathologist blinded to the experimental design by drawing a perpendicular line from the lumen of the terminal bronchiole to the nearest connective tissue septum or pleural margin and the number of saccules or alveoli crossed by this line was counted as previously described. […]

[4] = system: newborn rats; parameters: method as in PMID 19262292; details: single (24 h) and repeated (7 days) administration, 0.1–8 mg/kg; cited from earlier work
[5] = system: patients with type 2 diabetes; details: cited from earlier work
[6] = inhaled or intranasal, plasma, intratracheal 1 mg/kg
[7] = ip, plasma, intraperitoneal 1 mg/kg

**Q.** Which “Lung Tissue Binding (%)” value [1] does the source give for CN(CCOc1ccc(CC2SC(=O)NC2=O)cc1)c1ccccn1 (stereo not drawn) [RGZ, rosiglitazone] here?
**A.** 94.2 ± 0.7%

**Q.** And the half-life ([2]; inhaled or intranasal, lung, intratracheal 1 mg/kg)?
**A.** 900 min

**Q.** And the AUC(0-t) [2, 6]?
**A.** 25800 ng·h/mL

**Q.** What about the Cmax [2, 6] of the same compound?
**A.** 1950 ng/mL

**Q.** What about the Tmax [2, 6] of the same compound?
**A.** 15 min

**Q.** And the Cmax ([2]; ip, lung, intraperitoneal 1 mg/kg)?
**A.** 1020 ng/g

**Q.** What about the Cmax [2, 7] of the same compound?
**A.** 2440 ng/mL

**Q.** What about the Tmax [2, 7] of the same compound?
**A.** 15 min

**Q.** What about the Kp ([2]; lung and plasma, ip, intraperitoneal 1 mg/kg, read-out: AUCLung/AUCPlasma) of the same compound?
**A.** 0.7

**Q.** And the weight gain ([3]; PND 7)?
**A.** 43.46 ± 4.84 g

**Q.** What about the “alveolarization (RAC)” value ([3]; PND 7, vs vehicle) of the same compound?
**A.** neither improved

**Q.** And the “lung function (inspiratory capacity, G, H and Cst)” value ([3]; PND 7, vs vehicle)?
**A.** neither improved

**Q.** What about the “serum cholesterol and triglycerides levels” value [4] of the same compound?
**A.** remained unchanged

**Q.** What about the “plasma triglycerides, large- and medium-sized lipoproteins, low- and high-density cholesterol” value ([5]; adult patients with type 2 diabetes and dyslipidemia) of the same compound?
**A.** increases

**Q.** And the “risk of heart failure and cardiovascular mortality” value ([5]; diabetic patients)?
**A.** increases the risk
